# Experimental data reported in ChEMBL document CHEMBL5465560, “Selectivity Literature for EUbOPEN Chemogenomic Library” (2024).
# Assays:
# [1] = tested on: Fibroblast growth factor receptor 3 (Homo sapiens), P22607 [G697C]; test: (§1) Selectivity interaction (KinomeScan (DiscoverX)) EUB0000045b FGFR3
# [2] = biological target: Fibroblast growth factor receptor 3 (Homo sapiens, UniProt P22607); test: as §1
# [3] = biological target: Phosphatidylinositol 4,5-bisphosphate 3-kinase catalytic subunit alpha isoform (Homo sapiens) (UniProt P42336); test: (§2) Selectivity interaction (KinomeScan (DiscoverX)) EUB0000695a PIK3CA; settings: at 100 nM
# [4] = tested on: Phosphatidylinositol 4,5-bisphosphate 3-kinase catalytic subunit alpha isoform (Homo sapiens), P42336 [C420R]; test: as §2; settings: at 100 nM
# [5] = tested on: Phosphatidylinositol 4,5-bisphosphate 3-kinase catalytic subunit alpha isoform (Homo sapiens), P42336 [E542K]; test: as §2; settings: at 100 nM
# [6] = tested on: Phosphatidylinositol 4,5-bisphosphate 3-kinase catalytic subunit alpha isoform (Homo sapiens), P42336 [E545A]; test: as §2; settings: at 100 nM
# [7] = tested on: Phosphatidylinositol 4,5-bisphosphate 3-kinase catalytic subunit alpha isoform (Homo sapiens), P42336 [E545K]; test: as §2; settings: at 100 nM
# [8] = tested on: Phosphatidylinositol 4,5-bisphosphate 3-kinase catalytic subunit alpha isoform (Homo sapiens), P42336 [H1047L]; test: as §2; settings: at 100 nM
# [9] = tested on: Phosphatidylinositol 4,5-bisphosphate 3-kinase catalytic subunit alpha isoform (Homo sapiens), P42336 [H1047Y]; test: as §2; settings: at 100 nM
# [10] = tested on: Phosphatidylinositol 4,5-bisphosphate 3-kinase catalytic subunit alpha isoform (Homo sapiens), P42336 [I800L]; test: as §2; settings: at 100 nM
# [11] = tested on: Phosphatidylinositol 4,5-bisphosphate 3-kinase catalytic subunit alpha isoform (Homo sapiens), P42336 [M1043I]; test: as §2; settings: at 100 nM
# [12] = tested on: Phosphatidylinositol 4,5-bisphosphate 3-kinase catalytic subunit alpha isoform (Homo sapiens), P42336 [Q546K]; test: as §2; settings: at 100 nM
# [13] = biological target: Mitogen-activated protein kinase 3 (Homo sapiens, UniProt P27361); test: Selectivity interaction (KinomeScan (DiscoverX)) EUB0001079a MAPK3; settings: at 1 µM
# [14] = biological target: Transcription initiation factor TFIID subunit 1 (Homo sapiens) (UniProt P21675); test: Selectivity interaction (Bromodomain panel (DSF asssay)) EUB0000270b TAF1
# [15] = biological target: T1, cGMP-dependent protein kinase 2 (Homo sapiens) (UniProt Q13237); test: Selectivity interaction (ProQinase) EUB0000171b PRKG2
# T1 sequence (whole entry): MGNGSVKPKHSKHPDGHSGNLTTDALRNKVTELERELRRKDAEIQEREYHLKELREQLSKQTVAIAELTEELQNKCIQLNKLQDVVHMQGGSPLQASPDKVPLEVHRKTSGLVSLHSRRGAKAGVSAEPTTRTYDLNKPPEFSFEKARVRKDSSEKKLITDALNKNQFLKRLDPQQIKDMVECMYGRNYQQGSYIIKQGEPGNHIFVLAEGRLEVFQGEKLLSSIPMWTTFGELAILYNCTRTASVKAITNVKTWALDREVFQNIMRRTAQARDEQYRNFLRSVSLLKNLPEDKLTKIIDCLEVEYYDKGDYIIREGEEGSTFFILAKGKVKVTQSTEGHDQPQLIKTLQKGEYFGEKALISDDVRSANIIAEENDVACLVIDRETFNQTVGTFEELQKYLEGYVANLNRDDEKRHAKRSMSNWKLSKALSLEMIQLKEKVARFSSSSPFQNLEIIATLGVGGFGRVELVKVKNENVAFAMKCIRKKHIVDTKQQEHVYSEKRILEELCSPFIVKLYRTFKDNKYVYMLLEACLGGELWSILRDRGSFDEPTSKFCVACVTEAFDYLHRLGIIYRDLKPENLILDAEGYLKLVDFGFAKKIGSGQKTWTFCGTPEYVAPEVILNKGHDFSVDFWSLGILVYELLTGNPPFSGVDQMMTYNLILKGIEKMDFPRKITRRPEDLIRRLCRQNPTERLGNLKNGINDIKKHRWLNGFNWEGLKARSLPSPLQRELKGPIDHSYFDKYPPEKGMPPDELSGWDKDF
# [16] = tested on: Epidermal growth factor receptor (Homo sapiens), P00533 [UNDEFINED MUTATION]; test: Selectivity interaction (KinomeScan (DiscoverX)) EUB0001619a EGFR; settings: at 1 µM
# [17] = biological target: Serine/threonine-protein kinase mTOR (Homo sapiens, UniProt P42345); test: Selectivity interaction (ActivX KiNativ screen (ex vivo kinase selectivity in human PBMCs)) EUB0001619a MTOR; assay type: cell-based; settings: PBMC, at 1 µM
# [18] = biological target: RAC-beta serine/threonine-protein kinase (Homo sapiens) (UniProt P31751); test: Selectivity interaction (KinomeScan (DiscoverX)) EUB0000607a AKT2; settings: at 10 µM
# [19] = biological target: Tyrosine-protein kinase Srms (Homo sapiens) (UniProt Q9H3Y6); test: Selectivity interaction (KinomeScan (DiscoverX)) EUB0000607a SRMS; settings: at 10 µM
# [20] = biological target: T2, Inhibitor of nuclear factor kappa-B kinase subunit beta (Homo sapiens) (UniProt O14920); test: Selectivity interaction (ActivX KiNativ screen (kinase selectivity in THP-1 cell lysates)) EUB0000639a IKBKB; assay type: subcellular; settings: lysate, at 0.2 µM
# T2 sequence (whole entry): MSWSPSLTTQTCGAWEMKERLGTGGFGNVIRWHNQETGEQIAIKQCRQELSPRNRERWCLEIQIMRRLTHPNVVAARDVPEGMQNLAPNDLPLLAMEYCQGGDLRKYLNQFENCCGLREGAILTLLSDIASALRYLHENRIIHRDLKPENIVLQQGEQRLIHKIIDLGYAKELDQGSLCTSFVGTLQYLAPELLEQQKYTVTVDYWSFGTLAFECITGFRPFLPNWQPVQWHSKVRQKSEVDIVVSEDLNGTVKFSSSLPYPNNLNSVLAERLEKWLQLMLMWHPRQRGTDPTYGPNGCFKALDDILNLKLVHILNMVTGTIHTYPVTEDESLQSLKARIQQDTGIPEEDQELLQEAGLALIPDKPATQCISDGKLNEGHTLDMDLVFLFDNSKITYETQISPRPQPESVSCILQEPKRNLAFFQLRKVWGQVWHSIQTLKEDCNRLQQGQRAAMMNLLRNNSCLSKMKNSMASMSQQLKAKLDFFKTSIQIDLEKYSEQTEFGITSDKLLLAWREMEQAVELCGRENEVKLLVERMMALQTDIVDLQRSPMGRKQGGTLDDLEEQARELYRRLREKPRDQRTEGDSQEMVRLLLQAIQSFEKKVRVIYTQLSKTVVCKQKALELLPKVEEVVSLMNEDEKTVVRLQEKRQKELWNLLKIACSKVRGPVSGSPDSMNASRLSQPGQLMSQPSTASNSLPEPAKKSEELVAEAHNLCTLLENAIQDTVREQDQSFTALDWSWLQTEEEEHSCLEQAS
# Chain of Fibroblast growth factor receptor 3 (P22607 23-806 limits assumed): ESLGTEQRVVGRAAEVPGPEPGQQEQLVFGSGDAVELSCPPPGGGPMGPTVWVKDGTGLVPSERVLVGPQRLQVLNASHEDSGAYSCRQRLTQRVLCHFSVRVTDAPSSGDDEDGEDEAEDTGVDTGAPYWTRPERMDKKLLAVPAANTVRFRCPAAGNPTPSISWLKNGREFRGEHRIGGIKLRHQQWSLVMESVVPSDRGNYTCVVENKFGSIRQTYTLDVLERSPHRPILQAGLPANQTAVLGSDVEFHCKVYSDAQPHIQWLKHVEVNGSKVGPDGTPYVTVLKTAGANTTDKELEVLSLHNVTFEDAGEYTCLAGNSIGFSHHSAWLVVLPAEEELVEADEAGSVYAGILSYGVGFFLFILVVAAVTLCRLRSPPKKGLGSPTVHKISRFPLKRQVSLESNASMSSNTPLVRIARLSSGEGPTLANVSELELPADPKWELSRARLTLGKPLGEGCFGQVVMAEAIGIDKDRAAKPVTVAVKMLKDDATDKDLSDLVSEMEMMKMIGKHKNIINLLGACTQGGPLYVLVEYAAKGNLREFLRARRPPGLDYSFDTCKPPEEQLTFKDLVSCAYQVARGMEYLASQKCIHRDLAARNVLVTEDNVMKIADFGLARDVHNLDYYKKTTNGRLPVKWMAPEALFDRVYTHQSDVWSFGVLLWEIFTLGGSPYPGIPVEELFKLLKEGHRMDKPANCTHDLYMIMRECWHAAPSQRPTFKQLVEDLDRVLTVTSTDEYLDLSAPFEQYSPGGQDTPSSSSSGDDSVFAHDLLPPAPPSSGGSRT
# Chain of Fibroblast growth factor receptor 3 (Homo sapiens), P22607 [G697C] (P22607 whole entry G697C): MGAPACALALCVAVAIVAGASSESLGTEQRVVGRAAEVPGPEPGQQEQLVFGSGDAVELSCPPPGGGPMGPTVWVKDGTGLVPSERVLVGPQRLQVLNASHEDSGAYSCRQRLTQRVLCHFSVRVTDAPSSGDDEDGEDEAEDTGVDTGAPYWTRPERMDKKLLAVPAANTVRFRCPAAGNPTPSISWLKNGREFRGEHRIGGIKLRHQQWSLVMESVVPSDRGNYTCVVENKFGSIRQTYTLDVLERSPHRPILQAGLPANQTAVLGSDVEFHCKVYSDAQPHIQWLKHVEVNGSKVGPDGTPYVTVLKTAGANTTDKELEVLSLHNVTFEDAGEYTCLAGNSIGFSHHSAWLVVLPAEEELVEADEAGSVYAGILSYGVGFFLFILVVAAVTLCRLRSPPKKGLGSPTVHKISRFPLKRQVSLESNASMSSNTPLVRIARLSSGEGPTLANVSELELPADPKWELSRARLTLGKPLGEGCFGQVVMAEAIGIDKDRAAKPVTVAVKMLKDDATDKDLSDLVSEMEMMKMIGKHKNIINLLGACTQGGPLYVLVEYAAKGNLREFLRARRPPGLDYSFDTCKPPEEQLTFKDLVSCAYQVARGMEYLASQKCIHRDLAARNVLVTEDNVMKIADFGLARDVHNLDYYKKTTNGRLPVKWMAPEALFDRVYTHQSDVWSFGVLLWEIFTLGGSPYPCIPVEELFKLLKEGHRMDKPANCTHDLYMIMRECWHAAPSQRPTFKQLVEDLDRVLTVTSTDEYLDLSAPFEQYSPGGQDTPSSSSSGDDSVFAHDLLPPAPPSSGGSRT
# Chain of Phosphatidylinositol 4,5-bisphosphate 3-kinase catalytic subunit alpha isoform (Homo sapiens) (P42336 whole entry, canonical isoform): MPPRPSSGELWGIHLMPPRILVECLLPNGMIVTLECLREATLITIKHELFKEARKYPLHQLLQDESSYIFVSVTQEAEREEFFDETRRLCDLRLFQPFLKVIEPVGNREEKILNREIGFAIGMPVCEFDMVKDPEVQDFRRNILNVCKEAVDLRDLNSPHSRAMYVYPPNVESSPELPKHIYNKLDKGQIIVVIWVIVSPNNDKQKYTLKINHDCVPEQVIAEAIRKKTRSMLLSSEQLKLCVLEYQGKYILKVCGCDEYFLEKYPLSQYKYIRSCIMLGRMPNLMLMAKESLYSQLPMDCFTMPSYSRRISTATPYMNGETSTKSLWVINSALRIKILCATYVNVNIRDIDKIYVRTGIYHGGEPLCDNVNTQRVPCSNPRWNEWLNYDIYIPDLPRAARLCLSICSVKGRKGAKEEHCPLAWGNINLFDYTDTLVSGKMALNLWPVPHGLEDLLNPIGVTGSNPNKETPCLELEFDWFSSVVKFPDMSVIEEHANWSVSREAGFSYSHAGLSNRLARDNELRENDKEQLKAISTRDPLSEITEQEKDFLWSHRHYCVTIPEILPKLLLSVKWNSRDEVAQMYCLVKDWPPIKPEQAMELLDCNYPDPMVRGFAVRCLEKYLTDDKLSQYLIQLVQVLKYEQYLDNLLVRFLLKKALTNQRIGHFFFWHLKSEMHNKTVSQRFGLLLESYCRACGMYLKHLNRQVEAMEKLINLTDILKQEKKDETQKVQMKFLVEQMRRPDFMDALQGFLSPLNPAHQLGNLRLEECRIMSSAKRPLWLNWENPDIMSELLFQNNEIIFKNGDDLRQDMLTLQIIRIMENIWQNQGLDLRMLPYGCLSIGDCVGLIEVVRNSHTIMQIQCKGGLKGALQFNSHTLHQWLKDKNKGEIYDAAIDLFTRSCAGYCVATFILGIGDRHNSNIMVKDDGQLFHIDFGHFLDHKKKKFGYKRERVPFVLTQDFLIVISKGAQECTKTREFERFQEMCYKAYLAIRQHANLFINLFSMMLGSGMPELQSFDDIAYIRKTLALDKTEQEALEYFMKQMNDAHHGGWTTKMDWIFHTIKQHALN
# Chain of Phosphatidylinositol 4,5-bisphosphate 3-kinase catalytic subunit alpha isoform (Homo sapiens), P42336 [H1047L] (P42336 whole entry H1047L, canonical isoform): as the sequence (P42336 whole entry, canonical isoform) above, with H1047L counted along it
# Chain of Phosphatidylinositol 4,5-bisphosphate 3-kinase catalytic subunit alpha isoform (Homo sapiens), P42336 [C420R] (P42336 whole entry C420R, canonical isoform): as the sequence (P42336 whole entry, canonical isoform) above, with C420R counted along it
compound,measurement,setting,value
C=CC(=O)Nc1cc(-n2c(=O)ccc3cnc4ccc(-c5ccc(NS(C)(=O)=O)cc5)cc4c32)ccc1C,% of control,[1]; at 1 µM,26%
same,% of control,[1]; at 10 µM,96%
same,% of control,[2]; at 1 µM,100%
same,% of control,[2]; at 10 µM,100%
Cc1cc(F)c(C(=O)Nc2cccc(-c3nncn3C(C)C)n2)cc1-n1cnc(C2CC2)c1,% of control,[3],100%
same,% of control,[4],100%
same,% of control,[5],100%
same,% of control,[6],100%
same,% of control,[7],99%
same,% of control,[8],100%
same,% of control,[9],100%
same,% of control,[10],89%
same,% of control,[11],93%
same,% of control,[12],100%
Nc1cnc(N2CCc3cc(S(=O)(=O)Nc4c(F)cc(Cl)cc4F)cc(N4CCCC4=O)c32)nc1 [TP-020n],% of control,[13],91%
Cc1cc(CN)cc(C)c1-c1ncn(C)c1-c1cncn1C,dTM,[14],-1.17 K
C=CC(=O)Nc1cccc(C(=O)Nc2ccc(Nc3cc(-c4[nH]c(SC)nc4C)ccn3)cc2)c1,% of control,[15]; at 1 µM,84%
same,% of control,[15]; at 5 µM,81%
N#Cc1cccc(-c2c[nH]c3ncnc(N4CCOCC4)c23)c1,% of control,[16],79%
same,% of inhibition,[17],10%
CNC(=O)Nc1ccc(-c2nc(N3CC4CCC(C3)O4)c3cnn(C4CCC5(CC4)OCCO5)c3n2)cc1,% of control,[18],100%
same,% of control,[19],97%
CC[C@@H]1[C@H](F)C(=O)N[C@@H]1COc1nccc2cc(C(N)=O)c(OC)cc12 [ZIMLOVISERTIB],% of inhibition,[20],-2.2%
